# Patent US11980689B2 (AVALYN PHARMA INC., priority 2013, dated 2024)
# Where a name gives a salt, the structure may show the parent alone.
# B1: reduced rhTrx: stable reduced form of recombinant human thioredoxin used as a single component (protein, UniProt P10599 2-105, looked up)
# Thioredoxin: VKQIESKTAFQEALDAAGDKLVVVDFSATWCGPCKMIKPFFHSLSEKYSNVIFLEVDVDDCQDVASECEVKCMPTFQFFKKGQKVGEFSGANKEKLEATINELV
# modifications: reduced form
# Key:
# [1] = target: T1, purified human neutrophil elastase (Homo sapiens, UniProt P08246); conditions: cited from earlier work
# T1 sequence (P08246 30-247 limits assumed): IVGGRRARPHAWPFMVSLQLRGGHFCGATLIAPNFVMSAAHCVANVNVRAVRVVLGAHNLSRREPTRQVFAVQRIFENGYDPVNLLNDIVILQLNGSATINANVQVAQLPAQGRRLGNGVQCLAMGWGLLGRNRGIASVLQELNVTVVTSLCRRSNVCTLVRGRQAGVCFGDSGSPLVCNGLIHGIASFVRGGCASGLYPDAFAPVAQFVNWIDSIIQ
# [2] = system: sol elastase of CF sputum; conditions: unprocessed CF sputum directly treated; cited from earlier work
# [3] = system: cancer; conditions: cited from earlier work
# [4] = intravenous; cited from earlier work
# [5] = system: relapsed/refractory multiple myeloma; conditions: cited from earlier work
# [6] = system: newly diagnosed CML; conditions: cytogenetic and haematological response, time to progression; cited from earlier work
# [7] = system: COL1A1-PDGFβ-transformed fibroblasts, DFSP and giant-cell fibrosarcoma cell cultures; conditions: in vitro and in vivo; cited from earlier work
# [8] = system: primary human fibroblasts; assay: PDGF-induced fibroblast proliferation (MTS assay); conditions: for Proliferation (relative proliferation), Short Duration / Proliferation (relative proliferation), Long Duration: 20 ng/mL PDGF-BB, 72 hours, MTS; for inhibiting PDGF-induced fibroblast proliferation (in words) / cytotoxicity of drug concentrations tested: 0.5 to 50 nM; for cytotoxicity of drug concentrations tested: data not shown; for IC50: read-out: fifty-percent inhibitory concentration (IC50), PDGF-induced fibroblast proliferation, short-term exposure
# [9] = system: lung fibroblasts; conditions: 800 μg/ml of AGP, in vitro; cited from earlier work
# [10] = system: bleomycin-induced pulmonary fibrosis; conditions: both agents from Days 14; cited from earlier work
# [11] = target: c-kit (Homo sapiens, UniProt P10721); conditions: cited from earlier work
# [12] = system: SCLC; conditions: oral 600 mg daily up to 12 months; cited from earlier work
# [13] = bortezomib 1.3 mg/m2 vs high-dose dexamethasone
# [14] = 0.5 nM drug 30 min pretreatment then washed
# [15] = 5.0 nM drug 30 min pretreatment then washed
# [16] = 50.0 nM drug 30 min pretreatment then washed
# Sequence of c-kit (P10721 26-976): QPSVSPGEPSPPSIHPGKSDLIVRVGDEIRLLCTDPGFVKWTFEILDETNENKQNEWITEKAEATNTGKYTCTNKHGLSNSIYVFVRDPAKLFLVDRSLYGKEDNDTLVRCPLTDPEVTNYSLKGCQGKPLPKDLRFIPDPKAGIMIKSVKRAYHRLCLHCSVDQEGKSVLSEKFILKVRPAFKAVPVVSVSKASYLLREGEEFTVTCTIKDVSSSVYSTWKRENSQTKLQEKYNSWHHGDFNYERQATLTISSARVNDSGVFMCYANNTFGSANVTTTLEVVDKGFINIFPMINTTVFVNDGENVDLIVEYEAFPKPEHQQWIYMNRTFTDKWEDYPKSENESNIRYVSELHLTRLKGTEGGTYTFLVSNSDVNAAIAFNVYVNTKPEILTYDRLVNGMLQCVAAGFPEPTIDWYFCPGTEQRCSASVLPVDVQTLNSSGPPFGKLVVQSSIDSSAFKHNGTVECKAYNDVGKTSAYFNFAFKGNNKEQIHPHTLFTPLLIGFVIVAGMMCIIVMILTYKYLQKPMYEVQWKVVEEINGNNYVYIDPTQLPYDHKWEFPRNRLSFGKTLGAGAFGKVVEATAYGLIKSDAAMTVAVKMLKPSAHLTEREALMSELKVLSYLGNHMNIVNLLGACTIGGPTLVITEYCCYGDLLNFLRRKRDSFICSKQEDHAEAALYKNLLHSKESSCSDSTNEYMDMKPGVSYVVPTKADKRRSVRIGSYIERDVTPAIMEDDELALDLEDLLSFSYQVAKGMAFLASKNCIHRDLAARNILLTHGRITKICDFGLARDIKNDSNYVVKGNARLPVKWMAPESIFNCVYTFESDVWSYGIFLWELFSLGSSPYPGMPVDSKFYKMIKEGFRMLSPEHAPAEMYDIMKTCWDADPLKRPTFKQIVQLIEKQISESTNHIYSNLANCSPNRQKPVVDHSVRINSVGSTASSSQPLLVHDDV
molecule,measurement,setting,value
"O=C(O)CCCC[C@@H](S)CCS (racemic) [DHLA, dihydrolipoic acid]",inhibition of purified human neutrophil elastase (in words),[1],inhibited
same,increase of sol elastase activity,[2],did not increase
N#CC1(c2ccc(NC(=O)c3cccnc3NCc3ccncc3)cc2)CCCC1 [Apatinib],dose limiting toxicities,[3]; 1000 mg/day,3 of 3
same,complete response,"[3]; 65 cancer patients, Phase I/II",1.54%
same,partial response,"[3]; 65 cancer patients, Phase I/II",12.31%
same,progressive disease,"[3]; 65 cancer patients, Phase I/II",20%
same,stable disease,"[3]; 65 cancer patients, Phase I/II",66.15%
same,maximum tolerated dose,"[3]; human, in vivo",850 mg/day
CC(C)C[C@H](NC(=O)[C@H](Cc1ccccc1)NC(=O)c1cnccn1)B(O)O [Bortezomib],clearance,[4],rapidly cleared
same,time to peak concentrations,[4],about 30 minutes
same,1-year survival,[5]; [13],80%
same,median TTP,[5]; [13],6.2 months
same,patients with peripheral neuropathy,"[5]; human, in vivo",30%
Cc1ccc(NC(=O)c2ccc(CN3CCN(C)CC3)cc2)cc1Nc1nccc(-c2cccnc2)n1 [Glivec],efficacy vs interferon and low-dose cytarabine,[6],superior efficacy
same,effect on cells,[7],inhibited
"CNC(=O)c1cc(Oc2ccc(NC(=O)Nc3ccc(Cl)c(C(F)(F)F)c3)cc2)ccn1 [Sorafinib, sorafinib]","Proliferation (relative proliferation), Short Duration",[8]; [14],0.117
same,"Proliferation (relative proliferation), Long Duration",[8]; 0.5 nM drug kept in media,0.313
same,"Proliferation (relative proliferation), Short Duration",[8]; [15],−0.010
same,"Proliferation (relative proliferation), Long Duration",[8]; 5.0 nM drug kept in media,0.175
same,"Proliferation (relative proliferation), Short Duration",[8]; [16],−0.147
same,"Proliferation (relative proliferation), Long Duration",[8]; 50.0 nM drug kept in media,0.130
same,inhibiting PDGF-induced fibroblast proliferation (in words),[8],dose-responsive
same,cytotoxicity of drug concentrations tested,[8],not cytotoxic
same,IC50,[8],~30 nM
COC(=O)c1ccc2c(c1)NC(=O)/C2=C(\Nc1ccc(N(C)C(=O)CN2CCN(C)CC2)cc1)c1ccccc1 [Vargatef],"Proliferation (relative proliferation), Short Duration",[8]; [14],0.115
same,"Proliferation (relative proliferation), Long Duration",[8]; 0.5 nM drug kept in media,0.003
same,"Proliferation (relative proliferation), Short Duration",[8]; [15],0.011
same,"Proliferation (relative proliferation), Long Duration",[8]; 5.0 nM drug kept in media,−0.359
same,"Proliferation (relative proliferation), Short Duration",[8]; [16],−0.175
same,"Proliferation (relative proliferation), Long Duration",[8]; 50.0 nM drug kept in media,−0.642
same,inhibiting PDGF-induced fibroblast proliferation (in words),[8],dose-responsive
same,cytotoxicity of drug concentrations tested,[8],not cytotoxic
same,IC50,[8],~3 nM
CC[C@H]1OC(=O)[C@H](C)[C@@H](O[C@H]2C[C@@](C)(OC)[C@@H](O)[C@H](C)O2)[C@H](C)[C@@H](O[C@@H]2O[C@H](C)C[C@H](N(C)C)[C@H]2O)[C@](C)(OC)C[C@@H](C)C(=O)[C@H](C)[C@@H](O)[C@]1(C)O [clarithromycin],concentration required to abrogate the effects of AGP,[9],> 10 µM
same,"bleomycin-induced pulmonary fibrosis, combined use with imatinib",[10],attenuated
CC[C@H]1OC(=O)[C@H](C)[C@@H](O[C@H]2C[C@@](C)(OC)[C@@H](O)[C@H](C)O2)[C@H](C)[C@@H](O[C@@H]2O[C@H](C)C[C@H](N(C)C)[C@H]2O)[C@](C)(O)C[C@@H](C)C(=O)[C@H](C)[C@@H](O)[C@]1(C)O [erythromycin],concentration required to abrogate the effects of AGP,[9],more than 1 μM
same,"bleomycin-induced pulmonary fibrosis, combined use with imatinib",[10],attenuated
Cc1ccc(NC(=O)c2ccc(CN3CCN(C)CC3)cc2)cc1Nc1nccc(-c2cccnc2)n1 [imatinib mesylate],signal transduction cascade triggered by c-kit activation,[11],sufficiently blocked
same,antitumor activity,[12],no observed antitumor activity
DNase,increase of sol elastase activity,[2],190%
B1,inhibition of purified human neutrophil elastase (in words),[1],inhibited
same,increase of sol elastase activity,[2],60%
